Counter-ions that a name gives are not always drawn.
Key:
Bulk stability = format: physicochemical; conditions: 1 week
Experimental: Bulk stability of Compound 1 mesylate Form C, phosphate Form A, maleate Form A, fumarate Form B was investigated under 25° C./60% RH in an open container and under 40° C./75% RH in an open container over 1 week. Bulk stability of Compound 1 hydrochloride Form C and Form D, were evaluated under 25° C./60% RH in an open container, under 40° C./75% RH in an open container, and at 60° C. in a tight container over 1 week.

[1] = Hygroscopicity by dynamic vapor sorption (DVS) test; format: physicochemical; conditions: for hygroscopicity: DVS at 25° C.; for Form and crystallinity after the DVS test: after DVS at 25° C.; for water absorbed: from 40% RH to 95% RH at 25° C.
Experimental: It absorbed about 1.1% water from 40% RH to 95% RH at 25° C. […] It absorbed about 2.3% water from 40% RH to 95% RH at 25° C. […] It absorbed about 0.4% water from 40% RH to 95% RH at 25° C. […] It absorbed about 0.29% water from 40% RH to 95% RH at 25° C. […] It absorbed about 0.14% water from 40% RH to 95% RH at 25° C. After the DVS test.

[2] = Feasibility of Formulation process (compression, dry grinding, granulation simulation); format: physicochemical; conditions: for tolerance to compression, dry grinding, granulation simulation: compression at 2, 5, 10 and 20 MPa, Form change and crystallinity
Experimental: Feasibility of Formulation process for Compound 1 mesylate Form C, phosphate Form A, maleate Form A, fumarate Form B hydrochloride Form C, and hydrochloride Form D were evaluated by compression (at 2 MPa, 5 MPa, 10 MPa, and 20 MPa), dry grinding, and granulation simulation experiments.

[3] = Solubility in aqueous pH buffers and bio-relevant solutions; format: physicochemical; conditions: for solubility: in some solvent systems (summary statement)
Experimental: Solubility of the Compound 1 mesylate Form C, phosphate Form A, maleate Form A, and fumarate Form B was measured in 6 aqueous pH buffers and bio-relevant solutions including pH 1.2 HCl solution (0.1 N), pH 4.5 acetate buffer (50 mM), water, pH 2.0 SGF, pH 6.5 FaSSIF-v1, and pH 5.0 FeSSIF-v1 at 37° C. for 1 h and 2 h. Residual solids after the solubility test were analyzed by XRPD.

PK exposure = format: in vivo; conditions: summary statement, method not given
[4] = Physicochemical stability of Compound 1 Form A (equilibration, evaporation, anti-solvent, DSC heating-cooling cycle experiments); conditions: equilibration at 25° C. (18 solvent systems) and 50° C. (19), slow and fast evaporation

Row | Compound | bulk stability (Bulk stability; 25° C./60% RH, open container) | bulk stability (Bulk stability; 40° C./75% RH, open container) | bulk stability (Bulk stability; 60° C., tight container) | hygroscopicity [1] | Form and crystallinity after the DVS test [1] | water absorbed [1] | tolerance to compression ([2]; compression) | tolerance to compression, dry grinding, granulation simulation [2] | XRPD peaks after compression ([2]; compression at 5 MPa, 10 MPa, and 20 MPa) | XRPD peaks after compression ([2]; compression under 5 MPa and 10 MPa) | solubility [3] | PK exposure (PK exposure) | solubility at 1 h ([3]; pH 2, simulated gastric fluid, thermodynamic from solid, SGF, 37° C., at 1 h) [µg/mL] | residual solids after the solubility test (XRPD) ([3]; SGF) | DVS behaviour of the potential hydrate ([1]; RH<70%, 25° C.) | DVS behaviour ([1]; from 0% RH to 40% RH, 25° C.) | DVS behaviour ([1]; relative humidity above 40%, 25° C.) | Form after dry grinding and compression ([2]; dry grinding and compression) | physicochemical stability (crystalline Form after the experiments) [4]
1 | CC(=O)Nc1cc(Nc2cc(C3CCOCC3)cc(S(C)(=O)=O)n2)c(-c2ccc3c(n2)OCC(C)(C)O3)cn1 [Compound 1 hydrochloride Form C, N-(5-(2,2-dimethyl-2,3-dihydro-[1,4]dioxino[2,3-b]pyridin-6-yl)-4-((6-(methylsulfonyl)-4-(tetrahydro-2H-pyran-4-yl)pyridin-2-yl)amino)pyridin-2-yl)acetamide] | physically and chemically stable | physically and chemically stable | physically and chemically stable | slightly hygroscopic | No Form changed | about 0.29% | good tolerance to compression with no Form change and no obvious crystallinity decrease | good tolerance | became slightly broad |  |  |  |  |  |  |  |  |  | 
2 | CC(=O)Nc1cc(Nc2cc(C3CCOCC3)cc(S(C)(=O)=O)n2)c(-c2ccc3c(n2)OCC(C)(C)O3)cn1 [Compound 1 hydrochloride Form D, N-(5-(2,2-dimethyl-2,3-dihydro-[1,4]dioxino[2,3-b]pyridin-6-yl)-4-((6-(methylsulfonyl)-4-(tetrahydro-2H-pyran-4-yl)pyridin-2-yl)amino)pyridin-2-yl)acetamide] | physically and chemically stable | physically and chemically stable | physically and chemically stable | non-hygroscopic | No Form changed | about 0.14% |  | good tolerance |  | became slightly broad |  |  |  |  |  |  |  |  | 
3 | CC(=O)Nc1cc(Nc2cc(C3CCOCC3)cc(S(C)(=O)=O)n2)c(-c2ccc3c(n2)OCC(C)(C)O3)cn1 [Compound 1 maleate Form A, N-(5-(2,2-dimethyl-2,3-dihydro-[1,4]dioxino[2,3-b]pyridin-6-yl)-4-((6-(methylsulfonyl)-4-(tetrahydro-2H-pyran-4-yl)pyridin-2-yl)amino)pyridin-2-yl)acetamide] | physically and chemically stable | physically and chemically stable |  | slightly hygroscopic | No Form and crystallinity changed | about 0.4% |  | good tolerance |  |  | relatively high solubility | good PK exposure |  |  |  |  |  |  | 
4 | CC(=O)Nc1cc(Nc2cc(C3CCOCC3)cc(S(C)(=O)=O)n2)c(-c2ccc3c(n2)OCC(C)(C)O3)cn1 [Compound 1 phosphate Form A, N-(5-(2,2-dimethyl-2,3-dihydro-[1,4]dioxino[2,3-b]pyridin-6-yl)-4-((6-(methylsulfonyl)-4-(tetrahydro-2H-pyran-4-yl)pyridin-2-yl)amino)pyridin-2-yl)acetamide] | physically and chemically stable | physically and chemically stable |  | slightly hygroscopic | No Form and crystallinity change | about 2.3% |  | good tolerance |  |  | relatively high solubility | good PK exposure | ~740 |  |  |  |  |  | 
5 | CC(=O)Nc1cc(Nc2cc(C3CCOCC3)cc(S(C)(=O)=O)n2)c(-c2ccc3c(n2)OCC(C)(C)O3)cn1 [Compound 1 fumarate Form B, N-(5-(2,2-dimethyl-2,3-dihydro-[1,4]dioxino[2,3-b]pyridin-6-yl)-4-((6-(methylsulfonyl)-4-(tetrahydro-2H-pyran-4-yl)pyridin-2-yl)amino)pyridin-2-yl)acetamide] | physically and chemically stable | physically and chemically stable |  |  | still Compound 1 fumarate Form B |  |  |  |  |  | relatively high solubility | good PK exposure |  | remained unchanged | underwent dehydration when RH<70% and returns back to the anhydrate | stable | started to absorb water when relative humidity was above 40% and converted to a potential hydrate | showed Form change | 
6 | CC(=O)Nc1cc(Nc2cc(C3CCOCC3)cc(S(C)(=O)=O)n2)c(-c2ccc3c(n2)OCC(C)(C)O3)cn1 [Compound 1 Form A, N-(5-(2,2-dimethyl-2,3-dihydro-[1,4]dioxino[2,3-b]pyridin-6-yl)-4-((6-(methylsulfonyl)-4-(tetrahydro-2H-pyran-4-yl)pyridin-2-yl)amino)pyridin-2-yl)acetamide] |  |  |  |  |  |  |  |  |  |  |  |  |  |  |  |  |  |  | still kept the same Form
7 | CC(=O)Nc1cc(Nc2cc(C3CCOCC3)cc(S(C)(=O)=O)n2)c(-c2ccc3c(n2)OCC(C)(C)O3)cn1 [Compound 1 mesylate Form C, N-(5-(2,2-dimethyl-2,3-dihydro-[1,4]dioxino[2,3-b]pyridin-6-yl)-4-((6-(methylsulfonyl)-4-(tetrahydro-2H-pyran-4-yl)pyridin-2-yl)amino)pyridin-2-yl)acetamide] | physically and chemically stable | physically and chemically stable |  | slightly hygroscopic | No Form and crystallinity changed | about 1.1% |  | good tolerance |  |  | relatively high solubility | good PK exposure |  |  |  |  |  |  | 

— patent US20250059199A1, “SOLID FORMS OF A TYK2 INHIBITOR, METHOD OF PREPARATION, AND USE THEREOF” (BeiGene Switzerland GmbH, priority 2021, published 2025)
